From ChEMBL document CHEMBL1201862, “PubChem BioAssay data set” (2004) come the findings set out here.

Test systems include LXFL 529; SNB-78; RXF 631; A498; PC-3; MDA-MB-435; MDA-N; BT-549; HOP-18.
Holding throughout (test): NCI anticancer screen, dose series, 48 h

Molecules are shown by their SMILES.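 Tested at 5 concentrations; 48 h exposure; 96-well plates; endpoints linearly interpolated, else capped at highest concentration. The concentration for 50% growth inhibition is given as GI50.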 Active and inactive are the calls of the source. Cut-off read from the data, not from the text of the source: active = GI50 up to about 1.1 µM and inactive = higher.

`Cc1cccc(NC(N)=S)c1`: the GI50 in the test on LXFL 529, in the test with SNB-78, with RXF 631 and in the test on A498 was > 100 µM (inactive) each time.

Regarding `BrC(/C=N/Nc1nnc(-c2ccccc2)c(-c2ccccc2)n1)C(Br)c1ccccc1` (centres undefined), the GI50 in the test with SNB-78 was 17.7 µM (inactive); in the test with RXF 631, 51.4 µM (inactive); with A498 it was 40.2 µM (inactive).

For `COc1ccc(C(=C2C=CC=C2)c2ccc(OC)cc2)cc1`, the GI50 was 47.5 µM (inactive) with PC-3, 35.8 µM (inactive) in the test on MDA-MB-435, 37 µM (inactive) in the test with MDA-N and > 100 µM (inactive) with BT-549.

In the case of `CC12CCC(C(=O)OC1=O)C(C)(C)O2` (centres undefined), the GI50 in the test with PC-3, with MDA-MB-435, with MDA-N and in the test with BT-549 was > 100 µM (inactive) in each case.

For the compound `C=CC(OC(=O)C(C)C)c1ccc(OC(=O)C(C)C)cc1` (centres undefined), the GI50 in the test on PC-3 was 8.97 µM (inactive); with MDA-MB-435, 13.6 µM (inactive); in the test with MDA-N, 12.5 µM (inactive); with BT-549, 17.4 µM (inactive); in the test on A498, 17.6 µM (inactive).

On to `C/C(N)=N/OCc1nc(C)no1`, for which the GI50 in the test with PC-3, with MDA-MB-435, with MDA-N and with BT-549 was > 100 µM (inactive) throughout.

Consider `COC1=C(C)C(=O)C2=C(C1=O)[C@@H]1[C@@H]3Cc4c(OC(=O)CO)c(C)c(OC)c(O)c4[C@H](CNC(=O)C(C)=O)N3[C@@H](C#N)[C@H](C2)N1C`, for which the GI50 with SNB-78 was < 0.013 µM (active); in the test on A498, 0.0959 µM (active); with HOP-18, 0.0382 µM (active).

Take `CCOC(=O)C1(C(C)=O)OC(=O)c2cnccc21` (centres undefined): the GI50 with PC-3, in the test with MDA-MB-435, in the test with MDA-N, in the test with BT-549 and in the test on A498 was > 100 µM (inactive) throughout.

As to `CC(=N/NC(=S)Nc1c(C)n(C)n(-c2ccccc2)c1=O)/C(C)=N\NC(=S)Nc1c(C)n(C)n(-c2ccccc2)c1=O`, the GI50 with PC-3, in the test with MDA-MB-435, in the test on BT-549 and with A498 was > 100 µM (inactive) each time.

In the case of `CC[N+]1(C)CCC(O)(c2ccccc2)C(C(=O)c2ccccc2)C1` (centres undefined), the GI50 with PC-3 is 17.9 µM (inactive); in the test on MDA-MB-435, 17.9 µM (inactive); in the test with LXFL 529, 10 µM (inactive); in the test with BT-549, 9.02 µM (inactive); in the test with A498, 16.1 µM (inactive); in the test with HOP-18 it was 13.7 µM (inactive).

Consider `COP(=O)(OC)C(Cc1c[nH]c2ccccc12)NC(=O)OCc1ccccc1` (centres undefined), for which the GI50 with PC-3, in the test with MDA-MB-435, in the test with MDA-N and in the test with A498 was > 100 µM (inactive) each time.

Regarding `COc1ccc(-c2c3c(nc4[nH]c(=S)[nH]c(=S)c24)CCCC3)cc1OC`, the GI50 was 24 µM (inactive) in the test with PC-3, 34.5 µM (inactive) in the test with MDA-MB-435, 34.3 µM (inactive) with MDA-N and 48.9 µM (inactive) with BT-549.

Take `Oc1[nH]c(Nc2cccc(Br)c2)nc2ncnc1-2`: the GI50 in the test with PC-3 is 98.2 µM (inactive); in the test on MDA-MB-435 it was 93.5 µM (inactive); in the test on MDA-N, > 100 µM (inactive); in the test with BT-549, 82.8 µM (inactive).

In the case of `Cc1cc(O)nc(NN2C(Cl)C(=O)C2c2ccco2)n1` (centres undefined), the GI50 is 29.3 µM (inactive) in the test on LXFL 529, 25.7 µM (inactive) in the test with SNB-78 and 21.1 µM (inactive) in the test with HOP-18.

As for `O=C(O)c1c[nH]c2c(=O)[nH]cnc12`, the GI50 in the test on LXFL 529, in the test with SNB-78, in the test on RXF 631 and in the test with HOP-18 was > 100 µM (inactive) throughout.

Take `O=C(O)C(Br)Cc1ccc2c(c1)OCO2` (centres undefined): the GI50 is > 100 µM (inactive) in the test with LXFL 529, > 100 µM (inactive) in the test with SNB-78 and 47.2 µM (inactive) in the test with A498.

As for `COC(=O)C1=C(C)N2CCSC2(C)C(C(=O)OC)C1c1cccc(Cl)c1` (centres undefined), in the test on LXFL 529, the GI50 was 20 µM (inactive).

For `C[C@H](N)C(=O)N[C@@H]1[C@H]2C(=C(O)C[C@@H](O)[C@@H]2O)C(=O)O[C@@H]1C`, the GI50 in the test with A498 is > 100 µM (inactive); in the test with HOP-18 it was 76.9 µM (inactive).

Turning to `CC1[C@@]2(O[C@@H]3C=C4C5CCC6Cc7nc8c(nc7C[C@@]6(C)C5C[C@H](O)[C@@]4(C)[C@]13O)CC1CCc3c(cc4c5c3C(O)C[C@H]5[C@@H](C)C3(O4)OC(C)(C)CC3O)[C@]1(C)C8)O[C@@](C)(CO)C[C@@H]2O` (some centres undefined), the GI50 in the test with SNB-78 is 0.183 µM (active); with A498, 0.129 µM (active); with HOP-18, 1.92 µM (inactive).

Regarding `C#CCNC(=O)CCC(N)C(=O)O` (centres undefined), the GI50 with SNB-78, with A498 and in the test with HOP-18 was > 100 µM (inactive) throughout.

Regarding `Oc1cc2cc(O)nc(O)c2c(O)n1`, the GI50 in the test with LXFL 529, in the test on SNB-78, in the test with RXF 631 and with A498 was > 100 µM (inactive) each time.

In the case of `CN(C)/N=C(/CC(O)(C(F)(F)F)C(F)(F)F)c1ccc([N+](=O)[O-])cc1`, the GI50 in the test with PC-3, in the test with MDA-MB-435, in the test on MDA-N and with A498 was > 100 µM (inactive) in each case.

Regarding `COc1cc(CNc2nc3c(NC(C)=O)cc(C(F)(F)F)cc3nc2-c2ccccc2)cc(OC)c1OC`, the GI50 with LXFL 529 is > 100 µM (inactive).

Regarding `COc1c2c(c3ccccc3c1O)C1C=CC2C1` (centres undefined), the figures for the GI50 in the test with LXFL 529 and in the test on HOP-18 were 3.82 µM (inactive) and 15.1 µM (inactive), respectively.

On to `c1ccc(P2c3ccccc3Nc3ccccc32)cc1`, for which the GI50 in the test with PC-3 is 30 µM (inactive); in the test with MDA-MB-435, > 100 µM (inactive); in the test with MDA-N it was 91 µM (inactive); in the test with A498, 27.1 µM (inactive).

In the case of `CC(=O)Nc1ccc(C(=O)N2N=C(C)/C(=C/c3ccc(O)cc3)C2=O)cc1`, the GI50 in the test with SNB-78 is > 100 µM (inactive).

In the case of `CC1CC2C3CCC4=CC(=O)C=CC4(C)C3(F)C(O)CC2(C)C1(O)C(=O)COP(=O)(O)O` (centres undefined), the GI50 was > 100 µM (inactive) with PC-3; > 100 µM (inactive) in the test with MDA-MB-435; 8.18 µM (inactive) with MDA-N; > 100 µM (inactive) in the test on LXFL 529; > 100 µM (inactive) with SNB-78; > 100 µM (inactive) with BT-549. Also, the GI50 with A498 and in the test with HOP-18 was > 100 µM (inactive) throughout.

As to `O=C(Nc1c(Cl)cc([N+](=O)[O-])cc1Cl)/C(=N\Nc1cccc(Cl)c1)c1c(O)c2ccccc2oc1=O`, the GI50 is 53.6 µM (inactive) in the test on RXF 631 and 21.2 µM (inactive) in the test with A498.
